From article PMC12525580, “Impacts of Tween-20, Glycerol, and Trehalose on Hyaluronidase Activity: Insights from Microscale Thermophoresis and Capillary Electrophoresis” (Molecules, 2025)

Target: T1, hyaluronidase type I-S from bovine testes (BTH; Hyal) (Bos taurus, UniProt Q2YDK3)
T1 construct: gene SPAM1; commercial unlabeled enzyme from bovine testes
T1 sequence (Q2YDK3 36-553): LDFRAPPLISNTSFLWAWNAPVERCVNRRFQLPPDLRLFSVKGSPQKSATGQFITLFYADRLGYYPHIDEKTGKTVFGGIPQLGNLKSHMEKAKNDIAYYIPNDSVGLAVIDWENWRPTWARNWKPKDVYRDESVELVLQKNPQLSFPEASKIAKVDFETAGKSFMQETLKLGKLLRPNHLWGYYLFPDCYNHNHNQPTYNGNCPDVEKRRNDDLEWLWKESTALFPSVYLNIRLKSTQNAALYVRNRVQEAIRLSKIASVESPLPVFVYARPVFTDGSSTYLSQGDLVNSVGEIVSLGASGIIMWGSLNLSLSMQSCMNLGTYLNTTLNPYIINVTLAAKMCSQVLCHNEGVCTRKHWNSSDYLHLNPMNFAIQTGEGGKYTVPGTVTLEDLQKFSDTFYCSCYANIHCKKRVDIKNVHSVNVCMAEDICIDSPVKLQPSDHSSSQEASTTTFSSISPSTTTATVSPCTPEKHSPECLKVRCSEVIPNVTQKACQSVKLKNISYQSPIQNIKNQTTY
Assay: CE-UV enzymatic assay of hyaluronic acid degradation; inhibition at […] without trehalose ([…] with […] trehalose)
Format: biochemical
Conditions: read-out: Inhibition at 1 mg/mL-Equation (1) / 0% Trehalose

Question: For `O=c1cc(-c2ccc(O)cc2)oc2cc(O[C@@H]3O[C@H](CO)[C@@H](O)[C@H](O)[C@H]3O)cc(O)c12` [apigenin-7-glucoside], which inhibition at 1000 µg/mL is on record?
Answer: 25 ± 5%
